Measured values taken from ChEMBL document CHEMBL2331400, “Structure-based design and evaluation of naphthalene diimide G-quadruplex ligands as telomere targeting agents in pancreatic cancer cells” (J Med Chem, 2013).
Activity calls are given as the source filed them. The rule behind the calls is not given here.

How the values were obtained:
WI-38 = assay: Cytotoxicity against human WI38 cells assessed as growth inhibition after 96 hrs by SRB assay; assay type: cell-based; settings: WI-38, 96 h
MCF7 = assay: Cytotoxicity against human MCF7 cells assessed as growth inhibition after 96 hrs by SRB assay; assay type: functional, cell-based; settings: MCF7, 96 h
786-0 = assay: Cytotoxicity against human 786-0 cells assessed as growth inhibition after 96 hrs by SRB assay; assay type: functional, cell-based; settings: 786-0, 96 h
[1] = Cytotoxicity against human RCC4 cells assessed as growth inhibition after 96 hrs by SRB assay; assay type: functional, cell-based; settings: RCC4, 96 h
A549 = assay: Cytotoxicity against human A549 cells assessed as growth inhibition after 96 hrs by SRB assay; assay type: functional, cell-based; settings: A549, 96 h
unidentified [2] = assay: Stabilization of HSP90b promoter sequence 5'-FAM-d(GGGCGGGCCAAAGGGAAGGGG)-TAMRA-3' (unknown origin) assessed as melting temperature at 1 uM by FRET assay
unidentified [3] = assay: Stabilization of HSP90a promoter sequence 5'-FAM-d(GGGCCAAAGGGAAGGGGTGGG)-TAMRA-3' (unknown origin) assessed as melting temperature at 1 uM by FRET assay
Homo sapiens = organism: Homo sapiens; assay: Stabilization of human telomeric G-quadruplex DNA sequence 5'-FAM-d(GGG[TTAGGG]3)-TAMRA-3' assessed as melting temperature at 1 uM by FRET assay
unidentified [4] = assay: Stabilization of duplex DNA T-loop (unknown origin) 5'-FAM-dTATAGCTATA-HEG-TATAGCTATA-TAMRA-3' assessed as melting temperature at 1 uM by FRET assay
MIA PaCa-2 [5] = assay: Induction of senescence in human MIAPaCa2 cells at 3.3 to 6.6 nM after 7 days by beta-galactosidase assay relative to vehicle-treated control; assay type: functional
MIA PaCa-2 [6] = assay: Cytotoxicity against human MIAPaCa2 cells assessed as growth inhibition after 96 hrs by SRB assay; assay type: functional, cell-based; settings: MIA PaCa-2, 96 h
MIA PaCa-2 [7] = assay: Inhibition of telomerase activity in human MIAPaCa2 cells assessed as telomere elongation up to 10 uM after 7 days by TRAP-LIG assay; assay type: cell-based
[8] = Selectivity ratio of IC50 for human WI-38 cells to IC50 for human 786-0 cells; assay type: ADME, cell-based; settings: WI-38 cells versus 786-0 cells, read-out: Ratio IC50
MIA PaCa-2 [9] = assay: Induction of senescence in human MIAPaCa2 cells at 25 to 50 nM after 7 days by beta-galactosidase assay relative to vehicle-treated control; assay type: functional, cell-based
MIA PaCa-2 [10] = assay: Inhibition of telomerase activity in human MIAPaCa2 cells assessed as telomere elongation at 25 to 50 nM by TRAP-LIG assay; assay type: cell-based

In the case of `CN1CCN(CCNc2cc3c4c(c(NCCN5CCN(C)CC5)cc5c4c2C(=O)N(CCN2CCOCC2)C5=O)C(=O)N(CCN2CCOCC2)C3=O)CC1`, the IC50 (WI-38) is reported as 1170 nM, the IC50 (MCF7) is reported as 180 nM and the IC50 (786-0) is reported as 1480 nM. It also gave an IC50 [1] of 5100 nM, an IC50 (A549) of 4930 nM and a ΔTm (unidentified [2]) of 27.6 °C. The ΔTm (unidentified [3]) was 30.6 °C, the ΔTm (Homo sapiens) was 24.7 °C and the ΔTm (unidentified [4]) was 1.7 °C.
`CN1CCN(CCCNc2cc3c4c(c(NCCCN5CCN(C)CC5)cc5c4c2C(=O)N(Cc2ccco2)C5=O)C(=O)N(Cc2ccco2)C3=O)CC1` gave an Activity (MIA PaCa-2 [5]) of 50%, an IC50 (WI-38) of 6840 nM and an IC50 (MCF7) of 2610 nM. For the same compound, the IC50 (786-0) was 1100 nM, the IC50 (MIA PaCa-2 [6]) was 2830 nM and the IC50 [1] was 3110 nM. It also gave an IC50 (A549) of 2410 nM, a ΔTm (unidentified [2]) of 1.1 °C and a ΔTm (unidentified [3]) of 0.9 °C. The ΔTm (Homo sapiens) was 0.2 °C and the ΔTm (unidentified [4]) was 0.3 °C.
For `CN1CCN(CCCNc2cc3c4c(c(NCCCN5CCN(C)CC5)cc5c4c2C(=O)N(CC2CCCO2)C5=O)C(=O)N(CC2CCCO2)C3=O)CC1` (racemic), the inhibition (MIA PaCa-2 [7]) was “inactive”, the IC50 (WI-38) was over 10000 nM and the IC50 (MCF7) was over 10000 nM. For the same compound, the IC50 (786-0) was over 10000 nM, the IC50 (MIA PaCa-2 [6]) was 5650 nM and the IC50 [1] was over 10000 nM. It also gave an IC50 (A549) of 5570 nM, a ΔTm (unidentified [2]) of 21 °C and a ΔTm (unidentified [3]) of 27.1 °C. The ΔTm (Homo sapiens) was 22.7 °C and the ΔTm (unidentified [4]) was 0.2 °C.
With `CN1CCN(CCNc2cc3c4c(c(NCCN5CCN(C)CC5)cc5c4c2C(=O)N(CCCN2CCOCC2)C5=O)C(=O)N(CCCN2CCOCC2)C3=O)CC1` the inhibition (MIA PaCa-2 [7]) was “inactive”, the IC50 (WI-38) was 2460 nM and the IC50 (MCF7) was 30 nM. The IC50 (MIA PaCa-2 [6]) was 10 nM, the IC50 [1] was 280 nM and the IC50 (A549) was under 10 nM. It also gave a ΔTm (unidentified [2]) of 31.1 °C, a ΔTm (unidentified [3]) of 31.9 °C and a ΔTm (Homo sapiens) of 27.8 °C. It also gave a ΔTm (unidentified [4]) of 8.1 °C.
`CN1CCN(CCCNc2cc3c4c(c(NCCCN5CCN(C)CC5)cc5c4c2C(=O)N(CC2CCOCC2)C5=O)C(=O)N(CC2CCOCC2)C3=O)CC1` showed a selectivity ratio [8] of 10, an IC50 (WI-38) of 12600 nM and an IC50 (MCF7) of 3120 nM. It also gave an IC50 (786-0) of 1200 nM, an IC50 (MIA PaCa-2 [6]) of 2500 nM and an IC50 [1] of 8380 nM. For the same compound, the IC50 (A549) was 2920 nM, the ΔTm (unidentified [2]) was 0.8 °C and the ΔTm (unidentified [3]) was 0.7 °C. The ΔTm (Homo sapiens) was 0.1 °C and the ΔTm (unidentified [4]) was 0.2 °C.
For `CN1CCN(CCCNc2cc3c4c(c(NCCCN5CCN(C)CC5)cc5c4c2C(=O)N(CCN2CCOCC2)C5=O)C(=O)N(CCN2CCOCC2)C3=O)CC1`, the IC50 (WI-38) was 610 nM, the IC50 (MCF7) was 170 nM and the IC50 (786-0) was 630 nM. It also gave an IC50 (MIA PaCa-2 [6]) of 40 nM, an IC50 [1] of 1750 nM and an IC50 (A549) of 1550 nM. For the same compound, the ΔTm (unidentified [2]) was 29.1 °C, the ΔTm (unidentified [3]) was 33.9 °C and the ΔTm (Homo sapiens) was 27 °C. It also gave a ΔTm (unidentified [4]) of 0.8 °C.
For `COCCCN1C(=O)c2cc(NCCCN3CCN(C)CC3)c3c4c(cc(NCCCN5CCN(C)CC5)c(c24)C1=O)C(=O)N(CCCOC)C3=O`, the inhibition (MIA PaCa-2 [7]) was “inactive”, the IC50 (WI-38) was 3320 nM and the IC50 (MCF7) was 5620 nM. The IC50 (786-0) was 7170 nM, the IC50 (MIA PaCa-2 [6]) was 2790 nM and the IC50 [1] was 10500 nM. The IC50 (A549) was 2540 nM, the ΔTm (unidentified [2]) was 23.8 °C and the ΔTm (unidentified [3]) was 29 °C. For the same compound, the ΔTm (Homo sapiens) was 0.5 °C and the ΔTm (unidentified [4]) was 0 °C.
With `CN1CCN(CCCNc2cc3c4c(c(NCCCN5CCN(C)CC5)cc5c4c2C(=O)N(CCCN2CCN(C)CC2)C5=O)C(=O)N(CCCN2CCN(C)CC2)C3=O)CC1` the Activity (MIA PaCa-2 [9]) was “Active”, the inhibition (MIA PaCa-2 [10]) was “inactive” and the IC50 (WI-38) was 9000 nM. It also gave a ΔTm (unidentified [2]) of 32 °C, a ΔTm (unidentified [3]) of 36.3 °C and a ΔTm (Homo sapiens) of 28.3 °C. For the same compound, the ΔTm (unidentified [4]) was 1.3 °C.
